Measurements published in ChEMBL document CHEMBL3046442, “Synthesis and Acaricidal Activity of Bicyclic Pyrazole-3-carboxamide Derivatives” (1992).
≈ marks a conversion by molar mass, not a printed value.

Assays:
Assay type in all cases: functional
Tetranychus urticae [1] = experiment: Acaricidal activity against Tetranychus urticae (two-spotted spider mite) infested kidney bean leaf assessed as mortality at 3.1 ppm after 5 days; conditions: 120 h
Tetranychus urticae [2] = experiment: Acaricidal activity against Tetranychus urticae (two-spotted spider mite) infested kidney bean leaf assessed as mortality at 200 ppm after 5 days; conditions: 120 h
Tetranychus urticae [3] = experiment: Acaricidal activity against Tetranychus urticae (two-spotted spider mite) infested kidney bean leaf assessed as mortality at 50 ppm after 5 days; conditions: 120 h
Tetranychus urticae [4] = experiment: Acaricidal activity against Tetranychus urticae (two-spotted spider mite) infested kidney bean leaf assessed as mortality at 12.5 ppm after 5 days; conditions: 120 h
Tetranychus urticae [5] = experiment: Adulticidal activity against adult Tetranychus urticae (two-spotted spider mite) infested kidney bean leaf disk after 2 days; conditions: foliar, 48 h
Tetranychus urticae [6] = experiment: Ovicidal activity against Tetranychus urticae (two-spotted spider mite) eggs laid on compound-treated kidney bean leaf disk measured after 7 days; conditions: foliar, 168 h
Panonychus citri [7] = experiment: Ovicidal activity against Panonychus citri eggs laid on compound-treated mandarian orange measured after 7 days; conditions: 168 h
Panonychus citri [8] = experiment: Adulticidal activity against adult Panonychus citri infested mandarian orange after 2 days; conditions: 48 h

Row | Structure (SMILES) | mortality at 3.1 ppm (Tetranychus urticae [1]) [%] | mortality at 200 ppm (Tetranychus urticae [2]) [%] | mortality at 50 ppm (Tetranychus urticae [3]) [%] | mortality at 12.5 ppm (Tetranychus urticae [4]) [%] | LC50 (Tetranychus urticae [5]) [µg/mL] | LC50 (Tetranychus urticae [6]) [µg/mL] | LC50 (Panonychus citri [7]) [µg/mL] | LC50 (Panonychus citri [8]) [µg/mL]
1 | CC1CCCc2c1nn(C)c2C(=O)NCc1ccc(C(C)(C)C)cc1 (stereo unspecified) | 0 | 0 | 0 | 0 | – | – | – | –
2 | CC(C)c1ccc(CNC(=O)c2c3c(nn2C)CCC3)cc1 | 0 | 3 | 2 | 1 | – | – | – | –
3 | CC1CCc2c1nn(C)c2C(=O)NCc1ccc(C(C)(C)C)cc1 (stereo unspecified) | 3 | 3 | 3 | 3 | 2.1 (≈ 6.45 µM) | 1.7 (≈ 5.22 µM) | 6.3 (≈ 19.4 µM) | 0.42 (≈ 1.29 µM)
4 | CC(C)(C)c1ccc(CNC(=O)c2c3c(nn2C(C)(C)C)CCC3)cc1 | – | 0 | 0 | – | – | – | – | –
5 | Cn1nc2c(c1C(=S)NCc1ccc(C(C)(C)C)cc1)CCC2 | – | 0 | 0 | – | – | – | – | –
6 | CCn1nc2c(c1C(=O)NCc1ccc(C(C)(C)C)cc1)CCC2 | – | 0 | 0 | – | – | – | – | –
7 | CC(C)n1nc2c(c1C(=O)NCc1ccc(C(C)(C)C)cc1)CCC2 | – | 0 | 0 | – | – | – | – | –
8 | Cn1nc2c(c1C(=O)NCc1ccc([Si](C)(C)C)cc1)CCC2 | 1 | 3 | 3 | 3 | – | – | – | –
9 | CC(C)Cc1ccc(CNC(=O)c2c3c(nn2C)CCC3)cc1 | 0 | 1 | 0 | 0 | – | – | – | –
10 | CN(Cc1ccc(C(C)(C)C)cc1)C(=O)c1c2c(nn1C)CCC2 | – | 0 | 0 | – | – | – | – | –
11 | Cn1nc2c(c1C(=O)OCc1ccc(C(C)(C)C)cc1)CCC2 | – | 1 | 0 | – | – | – | – | –
12 | Cn1nc2c(c1C(=O)NCc1ccc(C(C)(C)C)cc1)CCC2 | 2 | 3 | 3 | 3 | – | – | – | –
13 | Cn1nc2c(c1C(=O)NCc1ccc(C(C)(C)C)cc1)CCCC2 | 0 | 2 | 1 | 0 | – | – | – | –
14 | CCCCn1nc2c(c1C(=O)NCc1ccc(C(C)(C)C)cc1)CCC2 | – | 0 | 0 | – | – | – | – | –
15 | CCC(C)c1ccc(CNC(=O)c2c3c(nn2C)CCC3)cc1 (stereo unspecified) | 0 | 3 | 3 | 1 | – | – | – | –
16 | Cn1nc2c(c1C(=O)NCc1ccccc1)CCC2 | 0 | 0 | 0 | 0 | – | – | – | –
17 | CC(C)(C)c1ccc(CNC(=O)c2[nH]nc3c2CCC3)cc1 | – | 0 | 0 | – | – | – | – | –
18 | CCc1nn(C)c(C(=O)NCc2ccc(C(C)(C)C)cc2)c1Cl [TEBUFENPYRAD] | – | – | – | – | 3.7 (≈ 11.1 µM) | 0.96 (≈ 2.88 µM) | 3.9 (≈ 11.7 µM) | 0.5 (≈ 1.5 µM)
19 | CC1CC(C)c2c1nn(C)c2C(=O)NCc1ccc(C(C)(C)C)cc1 (stereo unspecified) | 0 | 1 | 0 | 0 | – | – | – | –
20 | Cn1nc2c(c1C(=O)NCCc1ccc(C(C)(C)C)cc1)CCC2 | – | 0 | 0 | – | – | – | – | –
21 | CCC1CCc2c1nn(C)c2C(=O)NCc1ccc(C(C)(C)C)cc1 (stereo unspecified) | 0 | 0 | 0 | 0 | – | – | – | –
22 | Cn1nc2c(c1C(=O)NCc1ccc(CC(C)(C)C)cc1)CCC2 | 0 | 3 | 1 | 0 | – | – | – | –
23 | CC(C)(C)c1ccc(CNC(=O)c2c3c(nn2-c2ccccc2)CCC3)cc1 | – | 0 | 0 | – | – | – | – | –
24 | Cn1nc2c(c1C(=O)SCc1ccc(C(C)(C)C)cc1)CCC2 | – | 0 | 0 | – | – | – | – | –
25 | CCCCc1ccc(CNC(=O)c2c3c(nn2C)CCC3)cc1 | 0 | 2 | 0 | 0 | – | – | – | –
26 | Cc1ccc(CNC(=O)c2c3c(nn2C)CCC3)cc1 | 0 | 0 | 0 | 0 | – | – | – | –
